Measured values reported in US20250268826A1, “IONIZABLE LIPIDOID COMPOSITIONS AND THERAPEUTIC USES THEREOF” (Flagship Pioneering Innovations VII, LLC, priority 2023, published 2025).

What was measured:
Assay type in all cases: physicochemical
Details in all cases: hEPO mRNA, N:P 6
[1] = Encapsulation efficiency (EE %) by fluorescence based Ribogreen assay
[2] = LNP size and polydispersity index (PDI) by dynamic light scattering (DLS)
[3] = LNP Zeta potential measured using a Zetasizer (Malvern)
[4] = Table 1, LNP lipid:DSPC:Cholesterol:DMG-PEG2k 50:10:38.5:1.5 mol %
[5] = Table 3, LNP 50:10:38.5:1.5 mol %
[6] = Table 5, LNP 50:10:38.5:1.5 mol %
[7] = Table 5, LNP 60:0:38.5:1.5 mol %
[8] = Table 5, LNP Lipid:DSPC:Cholesterol:DMG-PEG2k 50:10:38.5:1.5 mol %

| SMILES | Encapsulation Efficiency % [1, 4] | PDI [2, 4] | Size [2, 4] | Zeta potential [3, 4] | Encapsulation Efficiency % [1, 6] | PDI [2, 6] | Size [2, 8] | Zeta potential [3, 6] | other results |
| --- | --- | --- | --- | --- | --- | --- | --- | --- | --- |
| CCCCCCCCCC(=O)OCCN(CCOC(=O)CCCCCCCCC)C(=O)C(N)Cc1c[nH]cn1 (stereo not shown) [Compound 128] | 95.2% | 0.058 | 77.8 nm | 6.43 mV |  |  |  |  |  |
| CCCCCCCCC(CCCCCC)C(=O)OCCN(CCOC(=O)C(CCCCCC)CCCCCCCC)C(=O)C(N)CO (stereo not shown) [Compound 130] | 95.1% | 0.146 | 74.2 nm | −5.059 mV |  |  |  |  |  |
| CCCCCCCC/C=C\CCCCCCCC(=O)OCCN(CCOC(=O)CCCCCCC/C=C\CCCCCCCC)C(=O)C(N)CO (stereo not shown) [Compound 132] | 92.9% | 0.15 | 75.4 nm | −4.36 mV |  |  |  |  |  |
| CCCCCCCCCCCC(=O)OCCN(CCOC(=O)CCCCCCCCCCC)C(=O)C(N)CO (stereo not shown) [Compound 134] | 90.5% | 0.321 | 87.1 nm | 6.281 mV |  |  |  |  |  |
| CCCCCCCCCC(=O)OCCN(CCOC(=O)CCCCCCCCC)C(=O)C(N)CO (stereo not shown) [Compound 135] | 89.8% | 0.228 | 111.3 nm | 2.909 mV |  |  |  |  |  |
| CCCCCCCCC(CCCCCC)C(=O)OCCN(CCOC(=O)C(CCCCCC)CCCCCCCC)C(=O)CNCCO (stereo not shown) [Compound 305] |  |  |  |  | 99.5% | 0.05 | 59.3 nm | −0.5189 mV | Encapsulation Efficiency % [1, 5]: 99.3%; Encapsulation Efficiency % [1, 7]: 99.5%; PDI [2, 5]: 0.051; Size ([2]; Table 3, LNP lipid:DSPC:Cholesterol:DMG-PEG2k 50:10:38.5:1.5 mol %): 53.3 nm; PDI [2, 7]: 0.098; Size [2, 7]: 52.7 nm; Zeta potential [3, 7]: −2.027 mV |
| CCCCCC(CCCCC)C(=O)OCCN(CCOC(=O)C(CCCCC)CCCCC)C(=O)CN [Compound 601] |  |  |  |  | 99.8% | 0.185 | 83.8 nm | −4.878 mV |  |
| CCCCCCC(CCCC)C(=O)OCCN(CCOC(=O)C(CCCC)CCCCCC)C(=O)CN (stereo not shown) [Compound 602] |  |  |  |  | 99.1% | 0.337 | 84.8 nm | −5.94 mV |  |
| CCCCCCCCC(CC)C(=O)OCCN(CCOC(=O)C(CC)CCCCCCCC)C(=O)CN (stereo not shown) [Compound 603] |  |  |  |  | 98.4% | 0.213 | 71.7 nm | −3.116 mV |  |
| CCCCCCCC(CCCCCCC)C(=O)OCCN(CCOC(=O)C(CCCCCCC)CCCCCCC)C(=O)CN [Compound 604] |  |  |  |  | 99.3% | 0.102 | 208.5 nm | −7.347 mV | Encapsulation Efficiency % [1, 7]: 98%; PDI [2, 7]: 0.15; Size [2, 7]: 236.6 nm; Zeta potential [3, 7]: −3.753 mV |
| CCCCCCCCCCCCC(CC)C(=O)OCCN(CCOC(=O)C(CC)CCCCCCCCCCCC)C(=O)CN (stereo not shown) [Compound 606] |  |  |  |  | 99.9% | 0.457 | 57.2 nm | −2.662 mV |  |
